# Tested on: p16 promoter methylation in colorectal cancer cell line RKO
# Test: MS-qFRET quantification of p16 methylation reversal in RKO cells treated with DAC
# Format: cell-based
# Description: The quantitative ability of MS-qFRET was further tested in cell lines and in patient samples as a function of response to a DNA demethylating agent. Reversal of methylation in the colorectal cancer cell line, RKO, was quantified at specific time points after treatment with 5-aza-2′-deoxycytidine (DAC). […] Since DNA replication is necessary for incorporation of DAC into DNA, reversal of methylation may be best observed only after inhibition of DNA methyltransferases due to cell cycling. The low amount of methylation reversal in the initial 24 to 36 hours could be attributed to the 22 hour doubling time for RKO cells.
# (ID and IA corresponding to donor and acceptor intensity).
structure (smiles),measurement,setting,value
"Nc1ncn([C@H]2C[C@H](O)[C@@H](CO)O2)c(=O)n1 [5-aza-2′-deoxycytidine (DAC), 5-aza-2′-deoxycytidine]","q-score, level of p16 methylation post-treatment",DNA from RKO cells treated with DAC for different time points (FIG. 3C),drop in the level of methylation
same,time of maximal reversal of methylation at p16,"RKO cells, 1 μM DAC, post-treatment",60 h
